From patent US7348347B2, “Substituted 4,5,6,7-tetrahydrobenzthiazol-2-ylamine compounds” (Gruenenthal GmbH, priority 2004, dated 2008)

What was measured:
[1] = biological target: T1, 5-HT uptake (Rattus norvegicus, UniProt P31652); experiment: Inhibition of 5-HT uptake in rat brain synaptosomes; format: biochemical; settings: [3H]-5-HT
T1 construct: from tissue; host or cells: rat brain synaptosomes (P2 fraction) from marrow (medulla) and pons
Method: The relevant literature reference is enclosed herein by reference and is to be regarded as part of the disclosure.
The homogenate is centrifuged at 4° C. for 10 minutes at 1000 g. Following subsequent centrifugation at 17,000 g for 55 minutes, the synaptosomes (P2 fraction) are obtained, which are then resuspended in 0.32 M […] (0.5 mL/100 mg of the original weight).
The respective uptake was measured in a 96 well microtiter plate. The volume was 250 μL and the incubation was carried out at room temperature (ca 20-25° C.) under a blanket of oxygen.
The 96 samples through were then filtered through a Unifilter GF/B® microtiter plate (Packard) and washed with 200 mL of incubated buffer with the aid of a “Brabdel Cell-Harvester MPXRI 96T”. The Unifilter GF/B plate was dried at 55° C. over a period of 1 h. The plate was then sealed with a back seal® (Packard) and there were then added 35 μL of scintillant fluid per well (Ultima Gold, Packard).
A detailed description of the method is disclosed in the literature, for example, in M. Ch.

[2] = biological target: T2, NA transporter (Rattus norvegicus, UniProt Q63380); experiment: Inhibition of noradrenaline uptake in rat brain synaptosomes; format: biochemical; settings: 10 μM, rat synaptosomes (hypothalamus), [3H]-NA; for inhibition at 10 µM: read-out: % Inhibition of NA uptake [10 μM]
T2 construct: from tissue; host or cells: rat brain synaptosomes (P2 fraction) from hypothalamus
Method: II. […] For in vitro studies, synaptosomes of rat brain areas are freshly isolated, as described in the article “The isolation of nerve endings from brain” by E. G. Gray and […]. Anatomy 96, pages 79-88, 1962. The relevant literature reference is enclosed herein by reference and is to be regarded as part of the disclosure. […] The homogenate is centrifuged at 4° C. for 10 minutes at 1000 g. […] The respective uptake was measured in a 96 well microtiter plate. The volume was 250 μL and the incubation was carried out at room temperature (ca 20-25° C.) under a blanket of oxygen. […] The 96 samples through were then filtered through a Unifilter GF/B® microtiter plate (Packard) and washed with 200 mL of incubated buffer with the aid of a “Brabdel Cell-Harvester MPXRI 96T”. The Unifilter GF/B plate was dried at 55° C. over a period of 1 h. The plate was then sealed with a back seal® (Packard) and there were then added 35 μL of scintillant fluid per well (Ultima Gold, Packard). Following sealing with a top seal® (Packard) and following adjustment of the equilibrium (approximately over a period of 5 h), the radioactivity is determined in a 1450 Microbeta® (Wallac). […] The amount of protein used in the above determination corresponded to the values known from the literature, such as is described in “Protein measurement with the folin phenol reagent”, Lowry et al., J. Biol. Chem., 193, 265-275, 1951. A detailed description of the method is disclosed in the literature, for example, in […], and B. […] The relevant literature references are incorporated herein by reference and are to be regarded as part of the disclosure.

[3] = rat synaptosomes (medulla and pons)

T2 sequence (Q63380 1-617): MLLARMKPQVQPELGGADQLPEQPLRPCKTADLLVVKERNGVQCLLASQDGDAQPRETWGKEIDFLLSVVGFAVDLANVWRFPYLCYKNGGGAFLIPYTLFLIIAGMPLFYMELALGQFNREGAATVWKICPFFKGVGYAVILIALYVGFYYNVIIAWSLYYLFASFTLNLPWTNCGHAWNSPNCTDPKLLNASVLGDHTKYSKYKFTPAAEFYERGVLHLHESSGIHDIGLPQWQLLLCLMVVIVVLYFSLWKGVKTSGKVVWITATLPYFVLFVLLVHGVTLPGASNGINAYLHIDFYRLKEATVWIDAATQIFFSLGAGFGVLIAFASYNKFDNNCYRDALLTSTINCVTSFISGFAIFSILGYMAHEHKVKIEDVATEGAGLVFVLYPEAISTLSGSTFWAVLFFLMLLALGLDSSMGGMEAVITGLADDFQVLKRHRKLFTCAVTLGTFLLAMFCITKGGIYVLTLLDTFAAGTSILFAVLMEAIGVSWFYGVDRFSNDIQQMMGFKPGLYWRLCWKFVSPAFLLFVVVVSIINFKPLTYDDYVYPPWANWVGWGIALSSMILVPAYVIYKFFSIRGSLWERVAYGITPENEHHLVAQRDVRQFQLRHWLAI
T1 sequence (P31652 whole entry): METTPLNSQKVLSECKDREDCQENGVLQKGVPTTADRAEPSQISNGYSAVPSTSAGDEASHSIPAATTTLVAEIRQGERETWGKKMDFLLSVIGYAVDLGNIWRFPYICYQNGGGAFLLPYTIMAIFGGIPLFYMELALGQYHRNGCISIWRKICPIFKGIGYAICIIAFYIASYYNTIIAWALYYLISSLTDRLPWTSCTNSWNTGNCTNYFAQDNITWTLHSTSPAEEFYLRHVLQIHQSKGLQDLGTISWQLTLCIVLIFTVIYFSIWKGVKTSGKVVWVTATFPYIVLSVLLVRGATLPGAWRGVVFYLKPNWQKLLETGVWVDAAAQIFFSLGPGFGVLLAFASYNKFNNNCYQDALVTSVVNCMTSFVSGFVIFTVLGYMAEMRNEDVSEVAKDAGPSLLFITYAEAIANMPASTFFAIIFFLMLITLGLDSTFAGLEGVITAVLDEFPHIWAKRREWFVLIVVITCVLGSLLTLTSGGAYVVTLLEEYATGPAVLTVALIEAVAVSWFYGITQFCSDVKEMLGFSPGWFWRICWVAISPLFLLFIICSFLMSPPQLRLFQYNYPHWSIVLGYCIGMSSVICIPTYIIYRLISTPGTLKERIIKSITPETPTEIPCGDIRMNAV

Row | SMILES | % Inhibition of 5-HT uptake [10 μM] [1, 3] [%] | % Inhibition of NA uptake [10 μM] [2] [%] | inhibition at 10 µM [1, 3] [%] | inhibition at 10 µM [2] [%] | % Inhibition of 5-HT uptake [10 μM] ([1]; rat synaptosomes (and pons)) [%]
1 | O=C(Cc1cccs1)Nc1nc2c(s1)CCCC2C(=O)NCCN1CCCCCC1 (centres unmarked) [Example 39, 2-(2-Thiophen-2-ylacetylamino)-4,5,6,7-tetrahydrobenzthiazol-4-carboxylic acid(2-azepan-1-ylethyl)amide] | 49 | 50 | – | – | –
2 | CC(C)(C)CC(=O)Nc1nc2c(s1)CCCC2C(=O)N1CCN(Cc2ccccc2)CC1 (centres unmarked) [Example 82, N-[4-(4-Benzylpiperazin-1-carbonyl)-4,5,6,7-tetrahydrobenzthiazol-2-yl]-3,3-dimethylbutyramide] | – | – | 41 | 64 | –
3 | CC(C(=O)Nc1nc2c(s1)CCCC2C(=O)NCCC1CCCN1C)c1ccccc1 (centres unmarked) [Example 22, 2-(2-Phenylpropionylamino)-4,5,6,7-tetrahydrobenzthiazol-4-carboxylic acid [2-(1-methylpyrrolidin-2-yl)ethyl]amide] | – | – | 44 | 60 | –
4 | CC(C(=O)Nc1nc2c(s1)CCCC2C(=O)NCCCN(C)C)c1ccccc1 (centres unmarked) [Example 3, 2-(2-Phenylpropionylamino)-4,5,6,7-tetrahydrobenzthiazol-4-carboxylic acid (3-dimethylaminopropyl)amide] | – | – | 61 | 65 | –
5 | CCCC(=O)Nc1nc2c(s1)CCCC2C(=O)N1CCN(Cc2cc3ccccc3o2)CC1 (centres unmarked) [Example 27, N-[4-(4-Benzofuran-2-ylmethylpiperazin-1-carbonyl)-4,5,6,7-tetrahydrobenzthiazol-2-yl]butyramide] | – | – | 61 | 47 | –
6 | CC(C)(C)CC(=O)Nc1nc2c(s1)CCCC2C(=O)NC1CCN(Cc2ccccc2OCc2ccccc2)C1 (centres unmarked) [Example 73, 2-(3,3-Dimethylbutyrylamino)-4,5,6,7-tetrahydrobenzthiazol-4-carboxylic acid [1-(2-benzyloxybenzyl)pyrrolidin-3-yl]amide] | – | – | 71 | 75 | –
7 | CC(C)(C)CC(=O)Nc1nc2c(s1)CCCC2C(=O)N1CCN(CC=Cc2ccccc2)CC1 (centres unmarked) [Example 87, 3,3-Dimethyl-N-{4-[4-(3-phenylallyl)piperazin-1-carbonyl]-4,5,6,7-tetrahydrobenzthiazol-2-yl}butyramide] | – | – | 56 | 46 | –
8 | CC=CC=CC(=O)Nc1nc2c(s1)CCCC2C(=O)NCC1CCN(Cc2c(F)cccc2Cl)C1 (centres unmarked) [Example 61, 2-Hexa-2,4-dienoylamino-4,5,6,7-tetrahydrobenzthiazol-4-carboxylic acid[1-(2-chloro-6-fluorobenzyl)pyrrolidin-3-yl]methylamide] | 46 | 45 | – | – | –
9 | CC(=O)c1ccc(N2CCN(C(=O)C3CCCc4sc(NC(=O)c5ccco5)nc43)CC2)cc1 (centres unmarked) [Example 8, Furan-2-carboxylic acid{4-[4-(4-acetylphenyl)piperazin-1-carbonyl]-4,5,6,7-tetrahydrobenzthiazol-2-yl}amide] | 89 | 78 | – | – | –
10 | CCOc1ccccc1C(=O)Nc1nc2c(s1)CCCC2C(=O)N1CCN(C(C)c2ccccc2)CC1 (centres unmarked) [Example 75, 2-Ethoxy-N-{4-[4-(1-phenylethyl)piperazin-1-carbonyl]-4,5,6,7-tetrahydrobenzthiazol-2-yl}benzamide] | – | – | 59 | 51 | –
11 | O=C(COc1ccc(F)cc1)Nc1nc2c(s1)CCCC2C(=O)N1CCN(c2ccccc2)CC1 (centres unmarked) [Example 21, 2-(4-Fluorophenoxy)-N-[4-(4-phenylpiperazin-1-carbonyl)-4,5,6,7-tetrahydrobenzthiazol-2-yl]acetamide] | – | – | 47 | 55 | –
12 | CCCC(=O)Nc1nc2c(s1)CCCC2C(=O)NCC1CCN(Cc2ccc(-c3ccccc3)cc2)C1 (centres unmarked) [Example 29, 2-Butyrylamino-4,5,6,7-tetrahydrobenzthiazol-4-carboxylic acid (1-biphenyl-4-ylmethylpyrrolidin-3-yl)methylamide] | – | – | 55 | 73 | –
13 | O=C(Nc1nc2c(s1)CCCC2C(=O)N1CCN(c2ccccn2)CC1)c1ccoc1 (centres unmarked) [Example 64, Furan-3-carboxylic acid[4-(4-pyridin-2-ylpiperazin-1-carbonyl)-4,5,6,7-tetrahydrobenzthiazol-2-yl]amide] | 48 | 53 | – | – | –
14 | COc1cc(Br)c(CN2CCC(NC(=O)C3CCCc4sc(NC(=O)C(C)c5ccccc5)nc43)C2)cc1OC (centres unmarked) [Example 33] | 63 | 79 | – | – | –
15 | CCCCCC(=O)Nc1nc2c(s1)CCCC2C(=O)N1CCN(Cc2c(OC)cc(OC)cc2OC)CC1 (centres unmarked) [Example 34, Hexanoic acid{4-[4-(2,4,6-trimethoxybenzyl)piperazin-1-carbonyl]-4,5,6,7-tetrahydrobenzthiazol-2-yl}amide] | 63 | 50 | – | – | –
16 | O=C(Nc1nc2c(s1)CCCC2C(=O)N1CCN(CCc2ccccc2)CC1)c1ccoc1 (centres unmarked) [Example 71, Furan-3-carboxylic acid[4-(4-phenethylpiperazin-1-carbonyl)-4,5,6,7-tetrahydrobenzthiazol-2-yl]amide] | 66 | 90 | – | – | –
17 | O=C(CCc1ccccc1)Nc1nc2c(s1)CCCC2C(=O)NCC1CCN(Cc2ccc(-c3ccccc3)cc2)C1 (centres unmarked) [Example 55, 2-(3-Phenylpropionylamino)-4,5,6,7-tetrahydrobenzthiazol-4-carboxylic acid (1-biphenyl-4-ylmethylpyrrolidin-3-yl)methylamide] | – | – | 54 | 44 | –
18 | COc1cc(OC)c(CN2CCC(NC(=O)C3CCCc4sc(NC(=O)c5ccco5)nc43)C2)c(OC)c1 (centres unmarked) [Example 9, 2-[(Furan-2-carbonyl)amino]-4,5,6,7-tetrahydrobenzthiazol-4-carboxylic acid [1-(-2,4,6-trimethoxybenzyl)pyrrolidin-3-yl]amide] | – | – | 53 | 98 | –
19 | O=C(CCc1ccccc1)Nc1nc2c(s1)CCCC2C(=O)N1CCN(c2cccc(C(F)(F)F)c2)CC1 (centres unmarked) [Example 72, 3-Phenyl-N-{4-[4-(3-trifluoromethylphenyl)piperazin-1-carbonyl]-4,5,6,7-tetrahydrobenzthiazol-2-yl}propionamide] | – | – | 84 | 51 | –
20 | CC(C(=O)Nc1nc2c(s1)CCCC2C(=O)N1CCN(C(C)C)CC1)c1ccccc1 (centres unmarked) [Example 10, N-[4-(4-Isopropylpiperazin-1-carbonyl)-4,5,6,7-tetrahydrobenzthiazol-2-yl]-2-phenylpropionamide] | – | – | 42 | 64 | –
21 | CCOc1ccccc1CN1CCC(CNC(=O)C2CCCc3sc(NC(=O)Cc4cccs4)nc32)C1 (centres unmarked) [Example 40] | – | 47 | – | – | 48
22 | COc1cccc(N2CCN(C(=O)C3CCCc4sc(NC(=O)c5ccccc5)nc43)CC2)c1 (centres unmarked) [Example 28, N-{4-[4-(3-Methoxyphenyl)piperazin-1-carbonyl]-4,5,6,7-tetrahydrobenzthiazol-2-yl}benzamide] | – | – | 48 | 60 | –
23 | O=C(CC1CCCCC1)Nc1nc2c(s1)CCCC2C(=O)NCC1CCN(Cc2c(Cl)cccc2Cl)C1 (centres unmarked) [Example 67, 2-(2-cyclohexylacetylamino)-4,5,6,7-tetrahydrobenzthiazol-4-carboxylic acid[1-(2,6-dichlorobenzyl)pyrrolidin-3-yl]methylamide] | 97 | 42 | – | – | –
24 | CCCCCC(=O)Nc1nc2c(s1)CCCC2C(=O)NCCCN1CCCCC1C (centres unmarked) [Example 18, 2-Hexanylamino-4,5,6,7-tetrahydrobenzthiazol-4-carboxylic acid[3-(2-methylpiperidin-1-yl)propyl]amide] | 57 | 43 | – | – | –
25 | O=C(Cc1cccs1)Nc1nc2c(s1)CCCC2C(=O)NCCCN1CCOCC1 (centres unmarked) [Example 14] | 50 | 43 | – | – | –
